Reference: patent USRE37314E, “Pyrimidine derivatives” (Shionogi Seiyaku Kabushiki Kaisha, priority 1991, dated 2001)

Each compound was assayed against T1, HMG-CoA reductase (Rattus norvegicus, UniProt P51639) (assay: HMG-CoA reductase inhibitory effect (rat liver microsome, [14C]HMG-CoA, TLC/scintillation)). Details: comparative activity, with activity of Mevinolin (sodium salt) as reference drug taken as 100, sodium salt of test compound, 37° C., 30 minutes.
T1 construct: The rat liver microsome sample (100 μl), which was preserved at -80° C; from tissue; host or cells: liver microsomes of Sprague-Dawley rats fed 2% cholestyramine
T1 sequence (P51639 1-887): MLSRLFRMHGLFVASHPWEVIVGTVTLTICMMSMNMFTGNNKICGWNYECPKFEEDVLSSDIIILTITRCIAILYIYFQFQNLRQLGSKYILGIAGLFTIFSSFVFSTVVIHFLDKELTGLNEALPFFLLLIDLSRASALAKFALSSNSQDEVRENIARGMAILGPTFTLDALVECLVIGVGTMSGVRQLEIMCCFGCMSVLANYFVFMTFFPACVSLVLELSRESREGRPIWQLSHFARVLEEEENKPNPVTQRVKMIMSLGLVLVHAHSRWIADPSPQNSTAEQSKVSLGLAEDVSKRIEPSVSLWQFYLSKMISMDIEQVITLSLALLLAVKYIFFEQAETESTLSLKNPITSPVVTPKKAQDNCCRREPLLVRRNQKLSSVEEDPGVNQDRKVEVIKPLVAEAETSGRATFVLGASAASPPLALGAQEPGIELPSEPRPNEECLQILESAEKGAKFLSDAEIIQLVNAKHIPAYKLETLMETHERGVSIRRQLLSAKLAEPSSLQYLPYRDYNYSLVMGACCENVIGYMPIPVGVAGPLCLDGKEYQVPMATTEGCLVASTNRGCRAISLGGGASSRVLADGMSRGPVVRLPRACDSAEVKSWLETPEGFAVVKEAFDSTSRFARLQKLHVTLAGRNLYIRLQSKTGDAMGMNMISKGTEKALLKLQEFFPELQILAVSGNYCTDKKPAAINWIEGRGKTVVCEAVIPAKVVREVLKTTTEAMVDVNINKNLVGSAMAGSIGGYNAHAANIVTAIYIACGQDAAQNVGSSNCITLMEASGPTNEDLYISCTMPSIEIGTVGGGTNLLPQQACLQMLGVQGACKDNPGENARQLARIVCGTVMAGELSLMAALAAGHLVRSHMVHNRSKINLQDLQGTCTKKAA
Type: biochemical
Experimental: The HMG-CoA reductase inhibitory effect
(1) Preparation of rat liver microsome
Sprague-Dawley rats, which were in free access to ordinary dietes containing 2% cholestyramine and water for 2 weeks, were used for the preparation of rat liver microsome. The thus obtained microsome was the purified according to the manner by Juroda et al., Biochem. Biophys. Act, 486, 70 (1977). The microsomal fraction obtained by centrifugation at 105,000×g was washed once with a buffered solution containing 15 mM nicotinamide and 2 mM magnesium chloride (in a 100 mM potassium phosphate buffer, pH 7.4). It was homogenized with a buffer containing nicotinamide and magnesium chloride at the same weight as the liver employed. The thus obtained homogenate was cooled down and kept at -80° C.
(2) Measurement of the HMG-CoA reductase inhibitory activities
The rat liver microsome sample (100 μl), which was preserved at -80° C., was fused at 0° C. and diluted with 0.7 ml of a cold potassium phosphate buffer (100 mM, pH7.4). This was mixed with 0.8 ml of 50 mM EDTA (buffered with the aforementioned potassium phosphate buffer) and 0.4 ml of 100 mM dithiothreitol solution (buffered with the aforementioned potassium phosphate buffer), and the mixture was kept at 0° C. The microsome solution (1.675 ml) was mixed with 670 μl of 25 mM NADPH (buffered with the aformentioned potassium phosphate buffer), and the solution was added to the solution of 0.5 mM [3^-14 ](HMG-CoA (3mCi/mmol). A solution (5 μl) of sodium salt of the test compound dissolved in potassium phosphate buffer is added to 45 μl of the mixture. The resulting mixture was incubated at 37° C. for 30 minutes and cooled. After termination of the reaction by addition of 10 μl of 2N·HCl, the mixture was incubated again at 37° C. for 15 minutes and then 30 μl of this mixture was applied to thin-layer chromatography of silica gel of 0.5 mm in thickness (Merck AG, Art 5744). The chromatograms were developed in toluene/acetone (1/1) and the spot, whose Rf value was between 0.45 to 0.60, were scraped. The obtained products were put into a vial containing 10 ml of scintillator to measure specific radio-activity with scintillation counter.

Row | HMG-CoA reductase inhibitory activities | Structure (SMILES)
1 | 442 | CC(C)c1nc(N(C)S(C)(=O)=O)nc(-c2ccc(F)cc2)c1C=CC(O)CC(O)CC(=O)O (single isomer, unassigned) [Compound 1a-1]
2 | 260 | CC(C)c1nc(N(C)NS(C)(=O)=O)nc(-c2ccc(F)cc2)c1C=CC(O)CC(O)CC(=O)O (centres unmarked) [Compound 1a-7]

Second part, the compound before the results:

Row | Structure (SMILES) | HMG-CoA reductase inhibitory activities
3 | CSc1nc(-c2ccc(F)cc2)c(C=CC(O)CC(O)CC(=O)O)c(C(C)C)n1 (centres unmarked) [Compound 1a-3] | 385
4 | CC[C@H](C)C(=O)O[C@H]1C[C@@H](C)C=C2C=C[C@H](C)[C@H](CC[C@@H](O)C[C@@H](O)CC(=O)O)[C@H]21 [Mevinolin Na, Mevinolin, reference compound] | 100
5 | COc1nc(-c2ccc(F)cc2)c(C=CC(O)CC(O)CC(=O)O)c(C(C)C)n1 (centres unmarked) [Compound 1a-5] | 279
